Earlier results as cited in patent US20250002910A1, “TREATMENT OF COMPLEMENT-MEDIATED DISORDERS” (Apellis Pharmaceuticals, Inc., priority 2021, published 2025).

Tested on: complement activation
Conditions: relative to compstatin amidated at the C-terminus; published data

Substance | Activity over compstatin
Ac-ICV(1-Nal)QDWGAHRCT-COOH [AcV4(1-Nal)/H9A-OH] | 30x more
Ac-ICV(2-IgI)QDWGAHRCT-CONH2 [Ac-V42lgl/H9A] | 39x more
Ac-ICV(2-IgI)QDWGAHRCT-COOH [Ac-V42lgl/H9A-OH] | 37x more
Ac-ICV(2-Nal)QDWGAHRCT-CONH2 [Ac-V4(2-Nal)/H9A] | 99x more
Ac-ICV(2-Nal)QDWGAHRCT-COOH [AcV4(2-Nal)/H9A-OH] | 38x more
Ac-ICV(Bpa)QDWGAHRCT-CONH2 [Ac-V4(Bpa)/H9A] | 86x more
Ac-ICV(Bpa)QDWGAHRCT-COOH [Ac-V4(Bpa)/H9A-OH] | 49x more
Ac-ICVDhtQDWGAHRCT-COOH [Ac-V4Dht/H9A-OH] | 5x more
Ac-ICVVQDWGHHRCT-CONH2 [Ac-compstatin] | 3x more
Ac-ICVWQD(5fW)GAHRCT-CONH2 [Ac-V4W/W7(5fW)/H9A] | 121x more
Ac-ICVWQDWGAHRCT-CONH2 (Ac-ICVWQDWGAHRCT-NH2; not fully specified (bridges); printed as Ac-ICVWQDWGAHRCT-CONH2; cysteine pairing not given here) [Ac-V4W/H9A] | 45x more
Ac-ICVWQDWGAHRCdT-COOH [Ac-V4W/H9A/T13dT-OH] | 55x more
Ac-ICVYQDWGAHRCT-CONH2 [Ac-V4Y/H9A] | 14x more
H-GICV(6fW)QD(6fW)GAHRCTN-COOH [+G/V4(6fW)/W7(6fW)H9A+N-OH] | 126x more
